Measurements published in ChEMBL document CHEMBL4825722, “Discovery of Potent Selective Nonzinc Binding Autotaxin Inhibitor BIO-32546” (ACS Med Chem Lett, 2021).

Assays:
[1] = target: Autotaxin (Homo sapiens, UniProt Q13822); assay: Inhibition of human ATX assessed as reduction in LPA formation using FS-3 as substrate preincubated for 30 mins followed by substrate addition and measured after 2 hrs by FRET assay
[2] = target: T1, hERG (KCNH2) (Homo sapiens, UniProt Q12809); assay: Inhibition of human ERG at 10 uM by automated patch-clamp assay relative to control
T1 sequence (Q12809 whole entry): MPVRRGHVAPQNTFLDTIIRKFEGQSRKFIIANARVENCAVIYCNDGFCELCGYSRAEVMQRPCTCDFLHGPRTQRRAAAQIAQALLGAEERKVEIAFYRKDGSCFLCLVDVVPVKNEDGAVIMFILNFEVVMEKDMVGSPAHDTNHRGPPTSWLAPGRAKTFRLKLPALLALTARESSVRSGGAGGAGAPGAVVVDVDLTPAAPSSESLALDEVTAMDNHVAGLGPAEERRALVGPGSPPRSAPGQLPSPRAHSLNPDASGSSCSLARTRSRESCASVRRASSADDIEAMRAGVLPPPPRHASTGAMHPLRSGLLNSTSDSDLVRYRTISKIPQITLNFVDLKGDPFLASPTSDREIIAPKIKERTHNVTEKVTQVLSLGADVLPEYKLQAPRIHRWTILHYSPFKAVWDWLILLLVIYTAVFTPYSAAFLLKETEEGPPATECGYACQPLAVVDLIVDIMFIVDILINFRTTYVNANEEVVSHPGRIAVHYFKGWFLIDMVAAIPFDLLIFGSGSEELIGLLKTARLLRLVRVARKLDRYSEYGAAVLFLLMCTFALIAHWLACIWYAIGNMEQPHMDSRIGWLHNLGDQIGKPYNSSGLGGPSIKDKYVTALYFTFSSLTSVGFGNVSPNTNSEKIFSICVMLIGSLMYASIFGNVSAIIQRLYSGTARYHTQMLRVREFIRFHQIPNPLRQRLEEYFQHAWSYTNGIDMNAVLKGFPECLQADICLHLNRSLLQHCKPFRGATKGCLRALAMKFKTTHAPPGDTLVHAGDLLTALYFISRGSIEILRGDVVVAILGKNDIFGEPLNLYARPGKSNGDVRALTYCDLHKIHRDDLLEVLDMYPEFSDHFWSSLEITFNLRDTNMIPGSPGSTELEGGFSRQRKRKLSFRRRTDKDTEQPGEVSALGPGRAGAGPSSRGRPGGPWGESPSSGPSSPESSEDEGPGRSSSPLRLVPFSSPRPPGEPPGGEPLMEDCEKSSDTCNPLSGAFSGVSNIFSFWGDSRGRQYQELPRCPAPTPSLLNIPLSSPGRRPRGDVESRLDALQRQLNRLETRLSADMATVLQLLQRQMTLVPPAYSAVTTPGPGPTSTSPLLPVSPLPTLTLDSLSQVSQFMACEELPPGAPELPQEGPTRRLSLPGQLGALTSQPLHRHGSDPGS

[3] = target: T1, hERG (KCNH2); assay: Inhibition of human ERG at 1 uM by automated patch-clamp assay relative to control
[4] = Protein binding in human plasma assessed as unbound fraction at 2 uM by rapid equilibrium dialysis method; type: ADME, cell-free
[5] = Drug concentration in rat brain at 10 mg/kg, po after 4 hrs; type: ADME, organism-based; conditions: read-out: Ct
[6] = Clearance in rat at 10 mg/kg, po; type: ADME, organism-based; conditions: in vivo
[7] = Protein binding in rat plasma assessed as unbound fraction; type: ADME, cell-free
[8] = Total brain to plasma concentration ratio in rat at 10 mg/kg, po measured after 4 hrs; type: ADME, organism-based; conditions: brain and plasma, read-out: BPR

| Compound | IC50 [1] [nM] | inhibition at 10 µM [2] [%] | inhibition at 1 µM [3] [%] | also measured |
| --- | --- | --- | --- | --- |
| O=C(O)CCCNC(=O)c1ccc2c(C(F)(F)F)c(O[C@H]3CC[C@@H](C(F)(F)F)CC3)ccc2c1 | 3700 | – | – | – |
| C[C@@H](c1ccc2ccc(O[C@H]3CC[C@@H](C)CC3)c(C(F)(F)F)c2c1)N1C2CCCC1CC(C(=O)O)C2 (some centres not stated) | 3.6 | 24.4 | 4.6 | – |
| C[C@H]1CC[C@@H](Oc2ccc3ccc(CN4C5CCCC4CC(C(=O)O)C5)cc3c2C(F)(F)F)CC1 (some centres not stated) | 8.2 | 84 | 12 | – |
| O=C(NCCCP(=O)(O)O)c1ccc2c(C(F)(F)F)c(O[C@H]3CC[C@@H](C(F)(F)F)CC3)ccc2c1 | 28 | – | – | – |
| O=C(O)CCCNCc1ccc2c(C(F)(F)F)c(O[C@H]3CC[C@@H](C(F)(F)F)CC3)ccc2c1 | 1300 | – | – | – |
| O=C(O)C1CCN(Cc2ccc3c(C(F)(F)F)c(O[C@H]4CC[C@@H](C(F)(F)F)CC4)ccc3c2)CC1 | 370 | 86.8 | 6.6 | – |
| C[C@H]1CC[C@@H](Oc2ccc3ccc(CN4C5CCC4CC(C(=O)O)C5)cc3c2C(F)(F)F)CC1 (some centres not stated) | 100 | 65 | 6 | – |
| C[C@H](c1ccc2ccc(O[C@H]3CC[C@@H](C)CC3)c(C(F)(F)F)c2c1)N1C2CCCC1CC(C(=O)O)C2 (some centres not stated) | 330 | 29.6 | 8.4 | – |
| CCCCCCCCCCCCCC(=O)OC[C@@H](O)COP(=O)(O)O | 110 | – | – | – |
| C[C@H]1CC[C@@H](Oc2ccc3cc(CN4C5CCCC4CC(C(=O)O)C5)ccc3c2C(F)(F)F)CC1 (some centres not stated) | 38 | 52.7 | 1.6 | – |
| C[C@@H](c1ccc2ccc(O[C@H]3CC[C@@H](C)CC3)c(C(F)(F)F)c2c1)N1C2CCC1CC(C(=O)O)C2 (some centres not stated) | – | – | – | Fu [4]: 0.18%; concentration at 4 h [5]: 103 ng/mL; CL/F [6]: 94 mL/min/kg; Fu [7]: 0.22%; Kp at 4 h [8]: 0.8 |
